Reference: patent US9351974B2, “Substituted pteridinones for the treatment of cancer” (OSI Pharmaceuticals, LLC, priority 2011, dated 2016)
pIC50: −log10 of the molar value.

Target: T1, His-tagged full-length RSK2 (RPS6KA3) (Homo sapiens, UniProt P51812)
T1 construct: His-tagged full-length RSK2 (RPS6KA3, Invitrogen PV3323); His; purchased Invitrogen PV3323
Experiment: RSK2 Omnia Assay for compound IC50 determination
Assay type: biochemical
Settings: ATP 15 μM, n=2, read-out: Mean RSK2 Biochem IC50
Procedure, shortened: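 Continuous fluorescence assay (ex 360/em 485 nm) of SOX-peptide (Omnia ST Peptide 6, 5 μM) phosphorylation with ATP 15 μM (Km 16.3 μM). Enzyme was […], in pH 7.5 HEPES/MgCl2 buffer with 1% DMSO. IC50 came from 11-point threefold dilutions ([…]) by four-parameter fit of initial slopes, in duplicate; Ki by Cheng-Prusoff assuming competitive inhibition.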

T1 sequence (P51812 whole entry): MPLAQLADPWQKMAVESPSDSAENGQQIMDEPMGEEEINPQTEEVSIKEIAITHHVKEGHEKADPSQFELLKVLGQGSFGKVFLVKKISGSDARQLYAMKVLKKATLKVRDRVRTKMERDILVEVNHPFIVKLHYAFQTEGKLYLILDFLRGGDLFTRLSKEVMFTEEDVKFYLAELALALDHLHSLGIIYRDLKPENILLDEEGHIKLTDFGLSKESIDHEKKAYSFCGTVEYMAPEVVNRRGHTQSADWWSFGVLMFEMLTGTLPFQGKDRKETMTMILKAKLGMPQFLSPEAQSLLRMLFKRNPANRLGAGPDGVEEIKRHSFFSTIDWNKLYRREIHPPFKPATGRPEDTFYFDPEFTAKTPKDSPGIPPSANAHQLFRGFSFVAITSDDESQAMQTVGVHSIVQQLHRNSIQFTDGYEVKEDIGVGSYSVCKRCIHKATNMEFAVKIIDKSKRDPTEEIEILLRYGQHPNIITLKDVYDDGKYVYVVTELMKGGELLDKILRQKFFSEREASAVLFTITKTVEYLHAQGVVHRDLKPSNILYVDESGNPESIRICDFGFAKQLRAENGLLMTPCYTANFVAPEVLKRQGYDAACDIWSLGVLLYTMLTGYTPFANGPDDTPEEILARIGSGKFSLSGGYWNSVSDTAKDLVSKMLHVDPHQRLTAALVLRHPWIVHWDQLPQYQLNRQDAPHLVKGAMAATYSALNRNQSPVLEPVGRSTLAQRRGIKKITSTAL

C[C@@H]1C(=O)N(c2cccc(F)c2)c2cnc(Nc3cc(F)c4[nH]ncc4c3)nc2N1C1CCC(C)(C)CC1 [Example 211, (7R)-8-(4,4-dimethylcyclohexyl)-2-[(7-fluoro-1H-indazol-5-yl)amino]-5-(3-fluorophenyl)-7-methyl-7,8-dihydropteridin-6(5H)-one]
pIC50: ≥ 7.00

C[C@@H]1C(=O)N(c2ccc(N3CCCC3)c(C#N)c2)c2cnc(Nc3cc(F)c4[nH]ncc4c3)nc2N1C1CCC(C)(C)CC1 [Example 212, 5-[(7R)-8-(4,4-dimethylcyclohexyl)-2-[(7-fluoro-1H-indazol-5-yl)amino]-7-methyl-6-oxo-7,8-dihydropteridin-5(6H)-yl]-2-(pyrrolidin-1-yl)benzonitrile]
pIC50: ≥ 7.00

C[C@@H]1C(=O)N(c2ccc(N3CCOCC3)nc2)c2cnc(Nc3cc(F)c4[nH]ncc4c3)nc2N1C1CCC(C)(C)CC1 [Example 213, (7R)-8-(4,4-dimethylcyclohexyl)-2-[(7-fluoro-1H-indazol-5-yl)amino]-7-methyl-5-[6-(morpholin-4-yl)pyridin-3-yl]-7,8-dihydropteridin-6(5H)-one]
pIC50: ≥ 7.00

C[C@@H]1C(=O)N(c2ccc(N3CCCC3)nc2)c2cnc(Nc3cc(F)c4[nH]ncc4c3)nc2N1C1CCC(C)(C)CC1 [Example 214, (7R)-8-(4,4-dimethylcyclohexyl)-2-[(7-fluoro-1H-indazol-5-yl)amino]-7-methyl-5-[6-(pyrrolidin-1-yl)pyridin-3-yl]-7,8-dihydropteridin-6(5H)-one]
pIC50: ≥ 7.00

C[C@@H]1C(=O)N(c2ccc(N3CCCCC3)nc2)c2cnc(Nc3cc(F)c4[nH]ncc4c3)nc2N1C1CCC(C)(C)CC1 [Example 215, (7R)-8-(4,4-dimethylcyclohexyl)-2-[(7-fluoro-1H-indazol-5-yl)amino]-7-methyl-5-[6-(piperidin-1-yl)pyridin-3-yl]-7,8-dihydropteridin-6(5H)-one]
pIC50: ≥ 7.00

C[C@@H]1C(=O)N(c2cccc(C#N)c2)c2cnc(Nc3ccc4[nH]ncc4c3F)nc2N1C1CCCC1 [Example 216, 3-[(7R)-8-cyclopentyl-2-[(4-fluoro-1H-indazol-5-yl)amino]-7-methyl-6-oxo-7,8-dihydropteridin-5(6H)-yl]benzonitrile]
pIC50: ≥ 7.00

CC[C@@H]1C(=O)N(c2cccc(C#N)c2)c2cnc(Nc3cc(F)c4[nH]ncc4c3)nc2N1C1CCCC1 [Example 217, 3-[(7R)-8-cyclopentyl-7-ethyl-2-[(7-fluoro-1H-indazol-5-yl)amino]-6-oxo-7,8-dihydropteridin-5(6H)-yl]benzonitrile]
pIC50: ≥ 7.00

N#Cc1cccc(N2C(=O)[C@@H](CO)N(C3CCCC3)c3nc(Nc4cc(F)c5[nH]ncc5c4)ncc32)c1 [Example 218, 3-[(7R)-8-cyclopentyl-2-[(7-fluoro-1H-indazol-5-yl)amino]-7-(hydroxymethyl)-6-oxo-7,8-dihydropteridin-5(6H)-yl]benzonitrile]
pIC50: ≥ 7.00

C[C@@H]1C(=O)N(c2cccc(C#N)c2)c2cnc(Nc3cc(F)c4[nH]ncc4c3)nc2N1C1CCCC1 [Example 219, 3-[(7R)-8-cyclopentyl-2-[(7-fluoro-1H-indazol-5-yl)amino]-7-methyl-6-oxo-7,8-dihydropteridin-5(6H)-yl]benzonitrile]
pIC50: ≥ 7.00

N#Cc1cccc(N2C(=O)[C@@H](CO)N(C3CCCC3)c3nc(Nc4ccc5[nH]ncc5c4)ncc32)c1 [Example 220, 3-[(7R)-8-cyclopentyl-7-(hydroxymethyl)-2-(1H-indazol-5-ylamino)-6-oxo-7,8-dihydropteridin-5(6H)-yl]benzonitrile]
pIC50: ≥ 7.00

N#Cc1cccc(N2C(=O)[C@@H](CF)N(C3CCCC3)c3nc(Nc4cc(F)c5[nH]ncc5c4)ncc32)c1 [Example 221, 3-[(7S)-8-cyclopentyl-2-[(7-fluoro-1H-indazol-5-yl)amino]-7-(fluoromethyl)-6-oxo-7,8-dihydropteridin-5(6H)-yl]benzonitrile]
pIC50: ≥ 7.00

N#Cc1cccc(N2C(=O)[C@@H](CF)N(C3CCCC3)c3nc(Nc4ccc5[nH]ncc5c4)ncc32)c1 [Example 222, 3-[(7S)-8-cyclopentyl-7-(fluoromethyl)-2-(1H-indazol-5-ylamino)-6-oxo-7,8-dihydropteridin-5(6H)-yl]benzonitrile]
pIC50: ≥ 7.00

C[C@@H]1C(=O)N(c2cccc(C#N)c2)c2cnc(Nc3cc(F)c4[nH]ncc4c3)nc2N1C1CCC(F)(F)CC1 [Example 260, 3-[(7R)-8-(4,4-difluorocyclohexyl)-2-[(7-fluoro-1H-indazol-5-yl)amino]-7-methyl-6-oxo-7,8-dihydropteridin-5(6H)-yl]benzonitrile]
pIC50: ≥ 7.00

C[C@@H]1C(=O)N(c2cccc(C#N)c2)c2cnc(Nc3cc(F)c4[nH]ncc4c3)nc2N1C1CCC2(CC1)CC2 [Example 297, 3-[(7R)-2-[(7-fluoro-1H-indazol-5-yl)amino]-7-methyl-6-oxo-8-(spiro[2.5]oct-6-yl)-7,8-dihydropteridin-5(6H)-yl]benzonitrile]
pIC50: ≥ 7.00

C[C@@H]1C(=O)N(c2cccnc2)c2cnc(Nc3cc(F)c4[nH]ncc4c3)nc2N1C1CCC2(CC1)CC2 [Example 298, (7R)-2-[(7-fluoro-1H-indazol-5-yl)amino]-7-methyl-5-(pyridin-3-yl)-8-(spiro[2.5]oct-6-yl)-7,8-dihydropteridin-6(5H)-one]
pIC50: ≥ 7.00

COc1ccc(N2C(=O)[C@@H](C)N(C3CCC4(CC3)CC4)c3nc(Nc4cc(F)c5[nH]ncc5c4)ncc32)cc1OC [Example 299, (7R)-5-(3,4-dimethoxyphenyl)-2-[(7-fluoro-1H-indazol-5-yl)amino]-7-methyl-8-(spiro[2.5]oct-6-yl)-7,8-dihydropteridin-6(5H)-one]
pIC50: ≥ 7.00

C[C@@H]1C(=O)N(c2ccc[n+]([O-])c2)c2cnc(Nc3cc(F)c4[nH]ncc4c3)nc2N1C1CCCCC1 [Example 303, (7R)-8-cyclohexyl-2-[(7-fluoro-1H-indazol-5-yl)amino]-7-methyl-5-(1-oxidopyridin-3-yl)-7,8-dihydropteridin-6(5H)-one]
pIC50: ≥ 7.00

CC(C)CCn1c(=O)c(=O)n(-c2ccccc2)c2cnc(Nc3ccc4[nH]ncc4c3)nc21 [Example 305, 2-(1H-indazol-5-ylamino)-8-(3-methylbutyl)-5-phenyl-5,8-dihydropteridine-6,7-dione]
pIC50: < 6.00

CC(C)CCn1c(=O)c(=O)n(-c2ccccc2)c2cnc(Nc3ccc4c(c3)CC(=O)N4)nc21 [Example 306, 8-(3-methylbutyl)-2-[(2-oxo-2,3-dihydro-1H-indol-5-yl)amino]-5-phenyl-5,8-dihydropteridine-6,7-dione]
pIC50: < 6.00

O=c1c(=O)n(C2CCCC2)c2nc(Nc3ccc4[nH]ncc4c3)ncc2n1-c1ccccc1 [Example 307, 8-cyclopentyl-2-(1H-indazol-5-ylamino)-5-phenyl-5,8-dihydropteridine-6,7-dione]
pIC50: 6.00 to 7.00

CC(C)CCN1c2cc(Nc3ccc4[nH]ncc4c3)ncc2N(c2ccccc2)C(=O)C1C (centres unmarked) [Example 310, 7-(1H-indazol-5-ylamino)-2-methyl-1-(3-methylbutyl)-4-phenyl-1,4-dihydropyrido[3,4-b]pyrazin-3(2H)-one]
pIC50: 6.00 to 7.00

C[C@@H]1C(=O)N(c2cc(F)cc(F)c2)c2cnc(Nc3ccc4[nH]ncc4c3)nc2N1C1CCCCC1 [compound 95, (7R)-8-cyclohexyl-5-(3,5-difluorophenyl)-2-(1H-indazol-5-ylamino)-7-methyl-7,8-dihydropteridin-6(5H)-one]
pIC50: ≥ 7.00

C[C@@H]1C(=O)N(c2ccc(F)c(C#N)c2)c2cnc(Nc3ccc4[nH]ncc4c3)nc2N1C1CCCCC1 [compound 96, 5-[(7R)-8-cyclohexyl-2-(1H-indazol-5-ylamino)-7-methyl-6-oxo-7,8-dihydropteridin-5(6H)-yl]-2-fluorobenzonitrile]
pIC50: ≥ 7.00

C[C@@H]1C(=O)N(c2cccc(C#N)c2)c2cnc(Nc3cc(Cl)c4[nH]ncc4c3)nc2N1C1CCCCC1 [compound 97, 3-[(7R)-2-[(7-chloro-1H-indazol-5-yl)amino]-8-cyclohexyl-7-methyl-6-oxo-7,8-dihydropteridin-5(6H)-yl]benzonitrile]
pIC50: ≥ 7.00

CSc1ccc(N2C(=O)[C@@H](C)N(C3CCCCC3)c3nc(Nc4ccc5[nH]ncc5c4)ncc32)cn1 [compound 98, (7R)-8-cyclohexyl-2-(1H-indazol-5-ylamino)-7-methyl-5-[6-(methylsulfanyl)pyridin-3-yl]-7,8-dihydropteridin-6(5H)-one]
pIC50: ≥ 7.00

COc1cc(F)cc(N2C(=O)[C@@H](C)N(C3CCCCC3)c3nc(Nc4ccc5[nH]ncc5c4)ncc32)c1 [compound 99, (7R)-8-cyclohexyl-5-(3-fluoro-5-methoxyphenyl)-2-(1H-indazol-5-ylamino)-7-methyl-7,8-dihydropteridin-6(5H)-one]
pIC50: ≥ 7.00

C[C@@H]1C(=O)N(c2cccc(C#N)c2)c2cnc(Nc3ccc4[nH]ncc4c3F)nc2N1C1CCCCC1 [compound 100, 3-[(7R)-8-cyclohexyl-2-[(4-fluoro-1H-indazol-5-yl)amino]-7-methyl-6-oxo-7,8-dihydropteridin-5(6H)-yl]benzonitrile]
pIC50: ≥ 7.00

C[C@@H]1C(=O)N(c2cccc(C#N)c2)c2cnc(Nc3ccc4[nH]ncc4c3Cl)nc2N1C1CCCCC1 [compound 101, 3-[(7R)-2-[(4-chloro-1H-indazol-5-yl)amino]-8-cyclohexyl-7-methyl-6-oxo-7,8-dihydropteridin-5(6H)-yl]benzonitrile]
pIC50: < 6.00

COc1c(Nc2ncc3c(n2)N(C2CCCCC2)[C@H](C)C(=O)N3c2cccc(C#N)c2)ccc2[nH]ncc12 [compound 102, 3-[(7R)-8-cyclohexyl-2-[(4-methoxy-1H-indazol-5-yl)amino]-7-methyl-6-oxo-7,8-dihydropteridin-5(6H)-yl]benzonitrile]
pIC50: 6.00 to 7.00
